In patent US5981545A, “N-linked azabicyclic heterocycles useful for treating dementia” (Beecham Group p.l.c., priority 1989, dated 1999):
pIC50: −log10 of the molar value. Structures can show the parent of a compound that is named as a salt.

How the values were obtained:
[1] = molecular target: muscarinic receptors; assay: Radio ligand binding, displacement of muscarinic agonist 3H-Oxotremorine-M (3H-OXO-M), rat cerebral cortex membranes; design: species or system Hooded Lister rats; details: 2 nM 3H-OXO-M, 2 mM magnesium chloride, tris pH 7.7, 37° C., 30 min
[2] = molecular target: muscarinic receptors; assay: Radio ligand binding, displacement of muscarinic antagonist 3H-Quinuclidinyl Benzilate (3H-QNB), rat cerebral cortex membranes; design: species or system Hooded Lister rats; details: 0.27 nM 3H-QNB, tris pH 7.7, 37° C., 30 min

Compound	pIC50 [1]	pIC50 [2]
Cc1ccn(C2CN3CCC2CC3)n1 (racemic) [E1, (±) 3-(3-Methylpyrazol-1-yl)-1-azabicyclo[2.2.2]octane oxalate salt]	6.43	5.30
c1cnn(C2CN3CCC2CC3)c1 (racemic) [E2, (±) 3-(Pyrazol-1-yl)-1-azabicyclo[2.2.2]octane dihydrochloride salt]	5.90	4.46
Cc1ncn(C2CN3CCC2CC3)n1 (racemic) [E6, (±) 3-(3-Methyl-1,2,4-triazol-1-yl)-1-azabicyclo[2.2.2] octane dihydrochloride salt]	7.17	5.25
c1ncn(C2CN3CCC2CC3)n1 (racemic) [E7, (±) 3-(1,2,4-Triazol-1-yl)-1-azabicyclo[2.2.2]octane dihydrochloride salt]	6.32	4.36
Cc1nnn(C2CN3CCC2CC3)n1 (racemic) [E10, (±) 3-(5-Methyltetrazol-2-yl)-1-azabicyclo[2.2.2]octane hydrochloride salt]	7.52	5.55
Nc1nnn(C2CN3CCC2CC3)n1 (racemic) [E11, (±) 3-(5-Aminotetrazol-2-yl)-1-azabicyclo[2.2.2]octane]	7.42	5.19
Cc1cnn(C2CN3CCC2CC3)n1 (racemic) [E12, (±) 3-(4-Methyl-1,2,3-triazol-2-yl)-1-azabicyclo-[2.2.2]octane hydrochloride]	6.59	5.68
c1nnn(C2CN3CCC2CC3)n1 (racemic) [E15, (±) 3-(Tetrazol-2-yl)-1-azabicyclo[2.2.2]octane hydrochloride salt]	6.62	4.55
c1nnnn1C1CN2CCC1CC2 (racemic) [E16, (±) 3-(Tetrazol-1-yl)-1-azabicyclo[2.2.2]octane hydrochloride salt]	5.56	3.96
c1ncn(C23CCCN(CC2)C3)n1 (racemic) [E27, (±) 5-(1,2,4-Triazol-1-yl)-1-azabicyclo[3.2.1]octane dihydrochloride salt]	7.92	5.49
Cc1ncn(C23CCCN(CC2)C3)n1 (racemic) [E28, (±) 5-(3-Methyl-1,2,4-triazol-1-yl)-1-azabicyclo-[3.2.1]octane dihydrochloride salt]	7.77	5.59
c1nnnn1C12CCCN(CC1)C2 (racemic) [E30, (±) 5-(tetrazol-1-yl)-1-azabicyclo[3.2.1]octane]	5.85	–
Cc1nnn(C23CCCN(CC2)C3)n1 (racemic) [E31, (±) 5-(5-Methyltetrazol-2-yl)-1-azabicyclo[3.2.1]octane]	7.94	5.54
Nc1nnn(C23CCCN(CC2)C3)n1 (racemic) [E33, (±) 5-(5-Aminotetrazol-2-yl)-1-azabicyclo[3.2.1]octane]	8.12	5.21
Nc1nnnn1C12CCCN(CC1)C2 (racemic) [E34, (±) 5-(5-aminotetrazol-1-yl)-1-azabicyclo[3.2.1]octane]	5.85	–
Nc1ncn(C23CCCN(CC2)C3)n1 (racemic) [E36, (±) 5-(3-Amino-1,2,4-triazol-1-yl)-1-azabicyclo[3.2.1]octane]	7.71	5.17
Nc1ncnn1C12CCCN(CC1)C2 (racemic) [E37, (±) 5-(5-amino-1,2,4-triazol-1-yl)-1-azabicyclo[3.2.1]octane]	6.89	4.24
Nc1ncn(C2CN3CCC2CC3)n1 (racemic) [E38, (±) 3-(3-Amino-1,2,4-triazol-1-yl)-1-azabicyclo-[2.2.2]octane]	6.74	4.84
Nc1ncnn1C1CN2CCC1CC2 (racemic) [E39, (±) 3-(5-amino-1,2,4-triazol-1-yl)-1-azabicyclo[2.2.2]octane dihydrochloride salt]	4.84	–
Brc1nnn(C2CN3CCC2CC3)n1 (racemic) [E40, (±) 3-[5-Bromotetrazol-2-yl]-1-azabicyclo[2.2.2]octane oxalate salt]	7.71	6.31
Clc1nnn(C2CN3CCC2CC3)n1 (racemic) [E44, (±) 3-(5-Chlorotetrazol-2-yl)-1-azabicyclo[2.2.2]octane oxalate salt]	7.50	6.14
N#Cc1nnn(C2CN3CCC2CC3)n1 (racemic) [E46, (±) 3-(5-Cyanotetrazol-2-yl)-1-azabicyclo[2.2.2]octane oxalate salt]	5.85	5.11

Compound	pIC50 [1]	pIC50 [2]
Brc1ncn(C2CN3CCC2CC3)n1 (racemic) [E47, (±) 3-(3-Bromo-1,2,4-triazol-1-yl)-1-azabicyclo[2.2.2]-octane oxalate salt]	7.00	5.48
Clc1ncn(C2CN3CCC2CC3)n1 (racemic) [E48, (±) 3-(3-Chloro-1,2,4-triazol-1-yl)-1-azabicyclo[2.2.2] octane oxalate salt]	6.71	5.05
Clc1nnn(C23CCCN(CC2)C3)n1 (racemic) [E49, (±) 5-(5-Chlorotetrazol-2-yl)-1-azabicyclo[3.2.1]octane oxalate salt]	8.49	6.30
Brc1nnn(C23CCCN(CC2)C3)n1 (racemic) [E50, (±) 5-(5-Bromotetrazol-2-yl)-1-azabicyclo[3.2.1]octane]	8.19	6.39
Cc1ncn([C@@H]2CN3CC[C@@H]2C3)n1 (relative stereo) [E8, (±) exo-3-(3-Methyl-1,2,4-triazol-1-yl)-1-azabicyclo-[2.2.1]heptane dihydrochloride salt]	7.66	5.20
c1ncn([C@@H]2CN3CC[C@@H]2C3)n1 (relative stereo) [E9, (±) exo-3-(1,2,4-Triazol-1-yl)-1-azabicyclo[2.2.1]heptane dihydrochloride salt]	7.32	4.37
Nc1nnn([C@H]2C[C@@H]3CCN(C3)C2)n1 (relative stereo) [E17, (±) exo-3-(5-Aminotetrazol-2-yl)-1-azabicyclo[3.2.1] octane hydrochloride]	6.77	5.57
Nc1nnn([C@@H]2CN3CC[C@@H]2C3)n1 (relative stereo) [E18, (±) exo-3-(5-Aminotetrazol-2-yl)-1-azabicyclo[2.2.1] heptane]	8.58	5.37
c1nnn([C@@H]2CN3CC[C@@H]2C3)n1 (relative stereo) [E19, (±) exo-3-(Tetrazol-2-yl)-1-azabicyclo[2.2.1]heptane hydrochloride salt]	7.52	4.65
Cc1nnn([C@@H]2CN3CC[C@@H]2C3)n1 (relative stereo) [E20, (±) exo-3-(5-Methyltetrazol-2-yl)-1-azabicyclo[2.2.1] heptane hydrochloride salt]	8.35	5.52
Cc1nnnn1[C@@H]1CN2CC[C@@H]1C2 (relative stereo) [E21, (±) exo-3-(5-Methyltetrazol-1-yl)-1-azabicyclo[2.2.1] heptane hydrochloride salt]	5.18	3.51
c1nnn([C@H]2C[C@@H]3CCN(C3)C2)n1 (relative stereo) [E22, (±) exo-3-(Tetrazol-2-yl)-1-azabicyclo[3.2.1]octane hydrochloride salt]	6.82	4.26
CCc1nnn([C@@H]2CN3CC[C@@H]2C3)n1 (relative stereo) [E23, (±) exo-3-(5-Ethyltetrazol-2-yl)-1-azabicyclo[2.2.1] heptane hydrochloride salt]	6.49	5.48
Cc1cnn([C@@H]2CN3CC[C@@H]2C3)n1 (relative stereo) [E25, (±) exo-3-(4-Methyl-1,2,3-triazol-2-yl)-1-azabicyclo-[2.2.1]heptane hydrochloride salt]	6.74	4.66
Brc1nnn([C@@H]2CN3CC[C@@H]2C3)n1 (relative stereo) [E41, (±) exo-3-(5-Bromotetrazol-2-yl)-1-azabicyclo[2.2.1]heptane oxalate salt]	8.19	5.82
Clc1nnn([C@@H]2CN3CC[C@@H]2C3)n1 (relative stereo) [E42, (±) exo-3-(5-Chlorotetrazol-2-yl)-1-azabicyclo[2.2.1]heptane oxalate salt]	8.12	6.15
Ic1nnn([C@@H]2CN3CC[C@@H]2C3)n1 (relative stereo) [E43, (±) exo-3-(5-Iodotetrazol-2-yl)-1-azabicyclo[2.2.1]heptane oxalate salt]	7.38	6.48
Brc1ncn([C@@H]2CN3CC[C@@H]2C3)n1 (relative stereo) [E54, (±) exo-3-(3-Bromo-1,2,4-triazol-1-yl)-1-azabicyclo-[2.2.1]heptane oxalate salt]	7.49	5.36
Cc1ncn(C2=CN3CCC2CC3)n1 [E5, 3-(3-Methyl-1,2,4-triazol-1-yl)-1-azabicyclo[2.2.2]oct-2-ene dihydrochloride]	6.19	4.52
c1nnn(C23CCCN(CC2)C3)n1 (centres unmarked) [E29, 5-(Tetrazol-2-yl)-1-azabicyclo[3.2.1]octane]	7.66	4.89
c1ncn(C23CCN(CC2)C3)n1 [E51, 4-(1,2,4-Triazol-1-yl)-1-azabicyclo[2.2.1]heptane oxalate salt]	7.78	4.19
